Assay results from US8691761B2, “Somatostatin receptor 2 antagonists” (priority 2006, dated 2014).
“Also recorded” adds a separate entry of the source. Like-named read-outs stand apart in the source and are kept apart here. Blank lines part the entries; values can stand above or below the compound they belong to. Bridge positions count the residues as written; N and C are the ends. Square brackets hold non-standard residues; d marks the D form. Peptide text beside a SMILES is read from it. * marks the point of attachment. ξ: configuration not given here. DOTA = O=C(O)CN1CCN(CC(=O)O)CCN(CC(=O)*)CCN(CC(=O)O)CC1; dPhe(4-NHCONH2) = NC(=O)Nc1ccc(C[C@@H](N)C(=O)O)cc1; Phe(4-Cl) = N[C@@H](Cc1ccc(Cl)cc1)C(=O)O; ξDihydroorotoyl = O=C1CC(C(=O)*)NC(=O)N1; 2Nal = N[C@@H](Cc1ccc2ccccc2c1)C(=O)O; ξPhe(4-NH2) = Nc1ccc(CC(N)C(=O)O)cc1

Columns and labels:
hSSTR2 = target: T1, hSSTR2 (Homo sapiens, UniProt P30874); assay: Receptor autoradiography, displacement of 125I-[Leu8,D-Trp22,Tyr25]-SRIF-28 from membrane pellet sections; type: binding
T1 construct: expressed in transfected cells; host or cells: CHO-K1 or CCL39 cells
Procedure: (§1) Generally, recombinant cells expressing the receptor are washed and homogenized to prepare a crude protein homogenate in a suitable buffer. In a typical assay, an amount of protein from the cell homogenate is placed into a small volume of an appropriate assay buffer at an appropriate pH. Candidate substances, such as potential SRIF agonists and antagonists, are added to the admixture in convenient concentrations, and the interaction between the candidate substance and the receptor polypeptide is monitored.
(§2) In vitro Bioassay: The effects of the various somatostatin analogs were tested in vitro for their ability to bind to isolated cloned receptors expressed on CHO-K1 cells and CCL39 cells. The molecular cloning of the genes encoding multiple somatostatin receptor subtypes permitted the individual expression of these receptors in mammalian cells and the characterization of their respective pharmacological profiles.
(§3) CHO-K1 cells were grown in Ham's F-12 medium, and CCL39 cells were grown in Dulbecco's modified Eagle's medium/Ham's F-12(1:1) mix, supplemented with 10% fetal bovine serum, 100 U/ml penicillin and 100 μg/ml streptomycin, in humidified air containing 5% CO2 at 37° C. Cells were washed twice with and scraped into ice-cold 0.05 M Tris-HCl (pH 7.4), collected by centrifugation, and homogenized using a rotor/stator/system in the same buffer. After centrifugation at 120 g for 5 min at 4° C., the supernatant was collected and centrifuged again at 48,000 g for 30 min at 4° C. The resulting pellet was resuspended in ice-cold Tris buffer, transferred into a microfuge tube, and centrifuged at 20,000 g for 15 min at 4° C. After withdrawal of the supernatant, the membrane pellet was stored at −80° C.
(§4) Receptor autoradiography was performed on 20 μm thick cryostat sections of the membrane pellets, mounted on microscope slides, and then stored at −20° C. […] Increasing concentrations of the unlabeled peptide were used ranging from 0.1-1000 nM. […] IC50 values were calculated after quantification of the data using a computer-assisted image processing system as known in this art.
(§5) The numbers in parentheses indicate the number of times the particular binding test was carried out.
(§6) Receptor autoradiography. Cell membrane pellets were prepared as previously described, and stored at −80° C. Receptor autoradiography was performed on 20-μm thick cryostat (Microm HM 500, Walldorf, Germany) sections of the membrane pellets, mounted on microscope slides, and then stored at −20° C. […] After a brief dip in distilled water to remove excess salts, the sections were dried quickly and exposed for 1 week to Kodak BioMax MR film. IC50 values were calculated after quantification of the data using a computer-assisted image processing system as described previously. […] (Reubi, J. C. “In vitro identification of vasoactive intestinal peptide receptors in human tumors: Implications for tumor imaging.” J. Nucl. Med. 1995, 36, 1846-1853).
(§7) To investigate their ssts binding properties, the peptides were tested for their ability to bind to cryostat sections from membrane pellets of cells expressing the five human ssts (Table 3).

human sst2A receptor = target: T2, human sst2A receptor (Homo sapiens, UniProt P30874); assay: Immunofluorescence-based sst2 internalization assay in HEK-sst2 cells; type: cell-based; settings: n ≧ 2
T2 construct: expressed in transfected cells; host or cells: HEK293 (HEK-sst2)
Procedure: Immunofluorescence-based sst2 Internalization Assay. Immunofluorescence microscopy-based internalization assay for sst2 was performed with HEK-sst2 using the sst2-specific antibody R2-88 as described elsewhere herein. HEK-sst2 cells were treated either with vehicle alone, the sst2 agonist [Tyr^3]-octreotide at a concentration of 100 nM, [Tyr^3]-octreotide at a concentration of 100 nM in the presence of an excess of the SRIF analogues to be tested (100 times the concentration of [Tyr^3]-octreotide), or with the SRIF analogues to be tested alone at a concentration of 10 μM, and then processed for immunofluorescence microscopy as described previously.

sst2 = sst2 (Homo sapiens, UniProt P30874); assay: Calcium release assay in HEK-sst2 cells (Fluo-4NW); type: cell-based; design: expressed in transfected cells; host or cells: HEK293 (HEK-sst2); settings: n ≧ 2
Procedure: Calcium release assay. Intracellular calcium release was measured in HEK-sst2 using the Fluo-4NW Calcium Assay kit as described previously (Magrys, et al. “The role of anti-alpha-enolase autoantibodies in pathogenicity of autoimmune-mediated retinopathy.” J. Clin. Immunol. 2007, 27, 181-192; Michel et al. “The Nef protein of human immunodeficiency virus is a broad-spectrum modulator of chemokine receptor cell surface levels that acts independently of classical motifs for receptor endocytosis and Galphai signaling.” Mol. Biol. Cell. 2006, 17, 3578-3590). In brief, HEK-sst2 cells were seeded (25,000 cells per well) in poly-D-lysine (20 μg/mL) coated 96 well plates and cultured for 1 day at 37° C. and 5% CO2 in culture medium. At the day of the experiment, the cells were washed with assay buffer (1×HBSS, 20 mM HEPES) containing 2.5 mM probenecid, and then loaded with 100 μL/well Fluo-4NW dye in assay buffer containing 2.5 mM probenecid for 30 min at 37° C. and 5% CO2 and then for further 30 min at room temperature. To measure the intracellular calcium mobilization after stimulation with the SRIF analogues to be tested, the dye-loaded cells were transferred to a SpectraMax M2^e (Molecular Devices, Sunnyvale, Calif.). Intracellular calcium mobilization was recorded in a kinetic for 60 sec at room temperature monitoring fluorescence emission at 520 nm (with λex=485 nm) in the presence of the analogues at the concentrations indicated. Maximum fluorescence (Fmax) was measured after the addition of 25 μM ionomycin. Baseline (control) measurements were taken for dye-loaded, untreated cells. Data are shown as percentage of Fmax (% Fmax) as reported previously. (Magrys, et al. J. Clin. Immunol. 2007, 27, 181-192; Michel et al. Mol. Biol. Cell. 2006, 17, 3578-3590). All experiments were repeated at least three times in triplicate.

HEK-sst2 tumors = settings: mouse, in vivo
Procedure: (§8) The following protocol was used to determine biodistribution
(§9) Confirmation that the transfected tumors were indeed expressing solely sst2 was obtained in resected tumor samples tested in vitro with somatostatin receptor autoradiography using subtype selective ligands.
(§10) The biodistribution of was studied at 4 h or 24 h after injection. The organs of interest were collected, blotted dry, weighed, their radioactivity measured and the percentage of injected activity per gram (% IA/g) calculated.

hSSTR5 = target: T3, hSSTR5 (Homo sapiens, UniProt P35346); assay: Receptor autoradiography, displacement of 125I-[Leu8,D-Trp22,Tyr25]-SRIF-28 from membrane pellet sections; type: binding
T3 construct: expressed in transfected cells; host or cells: CHO-K1 or CCL39 cells
Procedure: as §1, §2, §3, §4, §5, §6, §7

hSSTR3 = target: T4, hSSTR3 (Homo sapiens, UniProt P32745); assay: as above; type: binding
T4 construct: expressed in transfected cells; host or cells: CHO-K1 or CCL39 cells
Procedure: as §1, §2, §3, §4, §5, §6, §7

hSSTR4 = target: T5, hSSTR4 (Homo sapiens, UniProt P31391); assay: as above; type: binding
T5 construct: expressed in transfected cells; host or cells: CHO-K1 or CCL39 cells
Procedure: as §1, §2, §3, §4, §5, §6, §7

hSSTR1 = target: T6, hSSTR1 (Homo sapiens, UniProt P30872); assay: as above; type: binding
T6 construct: expressed in transfected cells; host or cells: CHO-K1 or CCL39 cells
Procedure: as §1, §2, §3, §4, §5, §6, §7

in vivo = settings: female, athymic nude, mouse, iv, total radioactivity, biodistribution
Procedure: as §8, §9, §10

T2 sequence (P30874 whole entry): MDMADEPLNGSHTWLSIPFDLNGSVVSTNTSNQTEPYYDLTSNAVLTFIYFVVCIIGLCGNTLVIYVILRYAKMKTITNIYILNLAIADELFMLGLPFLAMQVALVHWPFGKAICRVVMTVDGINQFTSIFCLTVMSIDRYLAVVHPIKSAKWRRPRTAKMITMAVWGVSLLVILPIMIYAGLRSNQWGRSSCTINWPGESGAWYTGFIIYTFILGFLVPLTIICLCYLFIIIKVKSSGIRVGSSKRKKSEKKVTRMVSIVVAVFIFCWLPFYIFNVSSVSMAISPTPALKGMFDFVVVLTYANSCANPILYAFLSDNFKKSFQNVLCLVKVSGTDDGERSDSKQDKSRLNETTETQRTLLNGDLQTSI
T1 sequence (P30874 whole entry): as above
T4 sequence (P32745 whole entry): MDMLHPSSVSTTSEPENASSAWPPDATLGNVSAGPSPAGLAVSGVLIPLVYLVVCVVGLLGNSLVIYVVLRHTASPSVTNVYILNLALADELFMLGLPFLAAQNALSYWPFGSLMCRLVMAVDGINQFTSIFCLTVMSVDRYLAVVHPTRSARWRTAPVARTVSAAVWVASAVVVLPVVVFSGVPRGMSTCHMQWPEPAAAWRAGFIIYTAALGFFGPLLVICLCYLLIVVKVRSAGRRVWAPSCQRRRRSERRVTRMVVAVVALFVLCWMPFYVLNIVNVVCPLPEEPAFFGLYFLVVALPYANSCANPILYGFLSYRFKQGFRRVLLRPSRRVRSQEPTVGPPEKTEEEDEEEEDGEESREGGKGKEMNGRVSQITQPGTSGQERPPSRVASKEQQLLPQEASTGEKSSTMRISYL
T3 sequence (P35346 whole entry): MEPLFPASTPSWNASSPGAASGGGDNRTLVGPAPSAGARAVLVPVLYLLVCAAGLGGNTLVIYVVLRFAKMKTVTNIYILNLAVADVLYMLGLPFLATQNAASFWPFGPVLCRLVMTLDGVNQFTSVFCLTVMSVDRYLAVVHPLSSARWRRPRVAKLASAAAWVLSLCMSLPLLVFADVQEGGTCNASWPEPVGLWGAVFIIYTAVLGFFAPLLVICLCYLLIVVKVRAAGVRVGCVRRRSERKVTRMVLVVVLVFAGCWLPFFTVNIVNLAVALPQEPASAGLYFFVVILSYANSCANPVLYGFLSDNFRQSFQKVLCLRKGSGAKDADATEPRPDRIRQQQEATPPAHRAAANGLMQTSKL
T6 sequence (P30872 whole entry): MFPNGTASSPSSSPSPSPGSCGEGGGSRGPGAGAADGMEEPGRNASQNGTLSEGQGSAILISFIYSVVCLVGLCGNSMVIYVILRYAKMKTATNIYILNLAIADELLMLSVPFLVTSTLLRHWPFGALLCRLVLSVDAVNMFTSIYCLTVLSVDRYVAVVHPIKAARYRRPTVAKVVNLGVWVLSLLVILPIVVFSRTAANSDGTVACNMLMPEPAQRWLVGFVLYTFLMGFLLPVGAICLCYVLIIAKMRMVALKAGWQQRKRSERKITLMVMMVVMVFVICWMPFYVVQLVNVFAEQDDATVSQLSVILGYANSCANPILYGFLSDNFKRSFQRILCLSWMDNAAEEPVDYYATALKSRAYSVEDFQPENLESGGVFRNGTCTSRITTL
T5 sequence (P31391 whole entry): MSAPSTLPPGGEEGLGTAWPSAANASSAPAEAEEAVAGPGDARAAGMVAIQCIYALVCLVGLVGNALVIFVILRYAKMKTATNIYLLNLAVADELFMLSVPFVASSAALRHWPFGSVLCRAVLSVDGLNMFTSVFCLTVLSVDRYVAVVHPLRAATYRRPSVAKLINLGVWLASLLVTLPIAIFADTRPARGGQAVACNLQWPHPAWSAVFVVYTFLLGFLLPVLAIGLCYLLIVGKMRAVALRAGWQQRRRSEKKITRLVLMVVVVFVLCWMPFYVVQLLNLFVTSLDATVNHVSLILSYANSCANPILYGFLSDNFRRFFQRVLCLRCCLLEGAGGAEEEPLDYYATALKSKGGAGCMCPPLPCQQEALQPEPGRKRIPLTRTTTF
sst2, sequence (P30874 whole entry): as the sequence (P30874 whole entry) above

sst2 binding affinity relative to SRIF-28 (hSSTR2): three to four-fold greater
Calcium release tested in vitro in HEK-sst2 cells (function) (sst2): Antagonist
tumor to kidney ratio (in words) (HEK-sst2 tumors): excellent tumor to kidney ratio
Structure (SMILES): C[C@@H](O)[C@@H]1NC(=O)[C@H](CCCCN)NC(=O)[C@@H](Cc2ccc(NC(N)=O)cc2)NC(=O)C(Cc2ccc(NC(=O)C3CC(=O)NC(=O)N3)cc2)NC(=O)[C@H](NC(=O)[C@H](Cc2ccc(Cl)cc2)NC(=O)CN2CCN(CC(=O)O)CCN(CC(=O)O)CCN(CC(=O)O)CC2)CSSC[C@@H](C(=O)N[C@H](Cc2ccc(O)cc2)C(N)=O)NC1=O (stereo partly drawn) [Peptide No. 31, DOTA-Cpa-c[DCys-Aph(Hor)-DAph(Cbm)-Lys-Thr-Cys]-DTyr-NH2] ({DOTA}-[Phe(4-Cl)][dC][ξPhe(4-NH2)](ξDihydroorotoyl)[dPhe(4-NHCONH2)]KTC[dY]-NH2; disulfide 2-7)
sst2-internalization tested in vitro in HEK-sst2 cells (function) (human sst2A receptor): antagonistic property; also recorded: Antagonist

IC50 (hSSTR5; Table 1, inhibition of radioligand binding to cloned human receptor, read-out: IC50 hSSTR5): > 1000 nM
IC50 (hSSTR5; Table 3, mean ± SEM when N ≧ 3, read-out: sst5 binding affinity (IC50)): > 1000 nM
IC50 (hSSTR3; Table 1, inhibition of radioligand binding to cloned human receptor, read-out: IC50 hSSTR3): > 1000 nM
IC50 (hSSTR3; Table 3, mean ± SEM when N ≧ 3, read-out: sst3 binding affinity (IC50)): 972 ± 212 nM
IC50 (hSSTR4; Table 1, inhibition of radioligand binding to cloned human receptor, read-out: IC50 hSSTR4): 816 ± 114 nM
IC50 (hSSTR4; Table 3, mean ± SEM when N ≧ 3, read-out: sst4 binding affinity (IC50)): 831 ± 82 nM
IC50 (hSSTR2; Table 1, inhibition of radioligand binding to cloned human receptor, read-out: IC50 hSSTR2): 9.4 ± 1.6 nM
IC50 (hSSTR2; Table 3, mean ± SEM when N ≧ 3, read-out: sst2 binding affinity (IC50)): 9.8 ± 1.2 nM
IC50 (hSSTR1; Table 1, inhibition of radioligand binding to cloned human receptor, read-out: IC50 hSSTR1): > 1000 nM
IC50 (hSSTR1; Table 3, mean ± SEM when N ≧ 3, read-out: sst1 binding affinity (IC50)): > 1000 nM
sst2-internalization tested in vitro in HEK-sst2 cells (function) (human sst2A receptor): Antagonist
Calcium release tested in vitro in HEK-sst2 cells (function) (sst2): Antagonist
Structure (SMILES): C[C@@H](O)[C@@H]1NC(=O)[C@H](CCCCN)NC(=O)[C@@H](Cc2c[nH]c3ccccc23)NC(=O)[C@H](Cc2ccc(NC(N)=O)cc2)NC(=O)[C@H](NC(=O)[C@H](Cc2ccc(Cl)cc2)NC(=O)CN2CCN(CC(=O)O)CCN(CC(=O)O)CCN(CC(=O)O)CC2)CSSC[C@@H](C(=O)N[C@@H](Cc2ccc3ccccc3c2)C(N)=O)NC1=O [Peptide No. 14, DOTA-Cpa-c[DCys-Aph(Cbm)-DTrp-Lys-Thr-Cys]-2Nal-NH2]

Structure (SMILES): C[C@@H](O)[C@@H]1NC(=O)[C@H](CCCCN)NC(=O)[C@@H](Cc2ccc(NC(N)=O)cc2)NC(=O)[C@H](Cc2ccc(O)cc2)NC(=O)[C@H](NC(=O)[C@H](Cc2ccc(Cl)cc2)NC(=O)CN2CCN(CC(=O)O)CCN(CC(=O)O)CCN(CC(=O)O)CC2)CSSC[C@@H](C(=O)N[C@@H](Cc2ccc3ccccc3c2)C(N)=O)NC1=O [^111In-labelled Peptide No. 28, metal not drawn] ({DOTA}-[Phe(4-Cl)][dC]Y[dPhe(4-NHCONH2)]KTC[2Nal]-NH2; disulfide 2-7)
tissue uptake at 4 h (in vivo; adrenal): 0.21 %ID/g
tissue uptake at 4 h (in vivo; blood): 0.19 %ID/g
tissue uptake at 4 h (in vivo; bone): 0.16 %ID/g
tissue uptake at 4 h (in vivo; heart): 0.12 %ID/g
tissue uptake at 4 h (in vivo; liver): 0.88 %ID/g
tissue uptake at 4 h (in vivo; muscle): 0.06 %ID/g
tissue uptake at 4 h (in vivo; pancreas): 2.41 %ID/g
tissue uptake at 4 h (in vivo; pituitary): 0.21 %ID/g
tissue uptake at 4 h (in vivo; sst2 tumor): 2.36 %ID/g
biodistribution, kidney (HEK-sst2 tumors; female, athymic nude, iv, 4 h): 6.95 % IA/g
biodistribution, spleen (HEK-sst2 tumors; female, athymic nude, iv, 4 h): 0.36 % IA/g
